From US20180296456A1, “Decapeptide-12 Modulation of Sirtuin Gene Expression in Epidermal Keratinocyte Progenitors” (Escape Therapeutics, Inc., priority 2017, published 2018)
Values joined by “and” are separate entries in the source; they are usually repeats but may differ in a detail not shown here. Equal values may be shown once. Ends that are not written are not given here.

Assays:
SIRT1 = SIRT1 transcription, semi-quantitative RT-PCR in human epidermal progenitors; format: cell-based; conditions: 72 h
Outline: (§1)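 Sirtuin mRNA levels are estimated semi-quantitatively as gel band intensity over 18S after 34 PCR cycles. Human neonatal epidermal progenitors in 60 μM calcium medium receive decapeptides (10–300 μM, 0.05 percent DMSO final) for 72 h at 37 °C.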

SIRT2 = SIRT2 transcription, semi-quantitative RT-PCR in human epidermal progenitors; format: cell-based; conditions: 72 h
Outline: as §1

SIRT4 = SIRT4 transcription, semi-quantitative RT-PCR in human epidermal progenitors; format: cell-based; conditions: 72 h
SIRT5 = SIRT5 transcription, semi-quantitative RT-PCR in human epidermal progenitors; format: cell-based; conditions: 72 h
Outline: as §1

SIRT6 = SIRT6 transcription, semi-quantitative RT-PCR in human epidermal progenitors; format: cell-based; conditions: 72 h
Outline: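 Following a 72 hour treatment, cells were trypsinized and RNA isolated with an RNeasy kit. cDNA was made from 2 μg RNA using oligo dT and TaqMan reagents, then SIRT6 and 18S were amplified for 34 cycles. Products ran on 1.5 percent agarose gels with ethidium bromide; densitometry gave SIRT6/18S intensity ratios compared against vehicle-treated controls.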

SIRT7 = SIRT7 transcription, semi-quantitative RT-PCR in human epidermal progenitors; format: cell-based; conditions: 72 h
Outline: as §1

in vitro = format: cell-based; conditions: human, human epidermal progenitors
Outline: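 Epidermal progenitors were seeded at 2.5×10^4/well and kept at 37 °C in 5% CO2. Proliferation was measured by MTT.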

[1] = MTT cell proliferation assay, melanoblasts; format: cell-based, human; conditions: human, MTT, 72 h, read-out: melanoblast proliferation rate after 72 hours
Outline: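 Human fibroblasts and melanoblasts were seeded at 2.5×10^4/well at 37 degrees Celsius, 5 percent CO2. Proliferation was read by MTT kit per manufacturer's protocol.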

[2] = Trypan blue cell viability, 7 days, fibroblasts; format: cell-based; conditions: human, relative to control, read-out: fibroblast viability after 7 days
Method: The effect of each of the decapeptides upon cell viability was also tested. In particular, cells were incubated with the decapeptide at various concentrations and then counted for viability relative to the control (untreated cells) using trypan blue. Cytotoxicity was measured according to the following formula:
[1−(# of cells in control−# of live cells in test sample)/# of cells in control]×100 percent.

YRSRKYSSWY [decapeptide-12, YRSRKYSSWY]
SIRT1 transcription increase relative to control (SIRT1; 3 μM): 3 ± 1%
SIRT1 transcription increase relative to control (SIRT1; 10 μM): 12.2 ± 3.1%^
SIRT1 transcription increase relative to control (SIRT1; 10 μM, listed as P4): 12 ± 3%
SIRT1 transcription increase relative to control (SIRT1; 30 μM): 34 ± 6.7%
SIRT1 transcription increase relative to control (SIRT1; 30 μM, listed as P4): 34 ± 7%
SIRT1 transcription increase relative to control (SIRT1; 50 μM): 79.2 ± 12%
SIRT1 transcription increase relative to control (SIRT1; 50 μM, listed as P4): 79 ± 12%
SIRT1 transcription increase relative to control (SIRT1; 100 μM): 141±11% and 141%
SIRT1 transcription increase relative to control (SIRT1; 100 μM, listed as Deca): 141.2 ± 11%
SIRT1 transcription increase relative to control (SIRT1; 100 μM, listed as P4): 141 ± 11%
SIRT1 transcription increase relative to control (SIRT1; 300 μM): 188 ± 12%^
SIRT1 transcription increase relative to control (SIRT1; 300 μM, listed as P4): 188 ± 12%
SIRT1 transcription increase relative to control (SIRT1; 500 μM): 205 ± 13.3%
SIRT1 transcription increase relative to control (SIRT1; 1000 μM): 213%
SIRT1 transcription increase relative to control (SIRT1; 1000 μM, listed as Deca): 213 ± 13.4%
SIRT2 transcription increase relative to control (SIRT2; 3 μM): 1 ± 1%
SIRT2 transcription increase relative to control (SIRT2; 10 μM): 4.1 ± 3%
SIRT2 transcription increase relative to control (SIRT2; 10 μM, listed as P4): 4 ± 3%
SIRT2 transcription increase relative to control (SIRT2; 30 μM): 11.2 ± 3.7%
SIRT2 transcription increase relative to control (SIRT2; 30 μM, listed as P4): 11 ± 4%
SIRT2 transcription increase relative to control (SIRT2; 50 μM): 21.5 ± 4.9%
SIRT2 transcription increase relative to control (SIRT2; 50 μM, listed as P4): 22 ± 5%
SIRT2 transcription increase relative to control (SIRT2; 100 μM, listed as Deca): 35.4 ± 5.5%
SIRT2 transcription increase relative to control (SIRT2; 100 μM, listed as P4): 35 ± 5%
SIRT2 transcription increase relative to control (SIRT2; 300 μM): 61.1± 6.8%
SIRT2 transcription increase relative to control (SIRT2; 300 μM, listed as P4): 61 ± 7%
SIRT2 transcription increase relative to control (SIRT2; 500 μM): 76 ± 6.1%
SIRT2 transcription increase relative to control (SIRT2; 1000 μM): 76 ± 7.1%
SIRT4 transcription increase relative to control (SIRT4; 3 μM): 3 ± 1%
SIRT4 transcription increase relative to control (SIRT4; 10 μM): 8.1 ± 4%^
SIRT4 transcription increase relative to control (SIRT4; 10 μM, listed as P4): 8 ± 3%
SIRT4 transcription increase relative to control (SIRT4; 30 μM): 12.1 ± 7%
SIRT4 transcription increase relative to control (SIRT4; 30 μM, listed as P4): 12 ± 7%
SIRT4 transcription increase relative to control (SIRT4; 50 μM): 41.2 ± 13.1%
SIRT4 transcription increase relative to control (SIRT4; 50 μM, listed as P4): 41 ± 13%
SIRT4 transcription increase relative to control (SIRT4; 100 μM, listed as Deca): 71.4 ± 14.1%
SIRT4 transcription increase relative to control (SIRT4; 100 μM, listed as P4): 71 ± 14%
SIRT4 transcription increase relative to control (SIRT4; 300 μM): 115 ± 11.7%
SIRT4 transcription increase relative to control (SIRT4; 300 μM, listed as P4): 115 ± 12%
SIRT4 transcription increase relative to control (SIRT4; 500 μM): 145 ± 12.7%
SIRT4 transcription increase relative to control (SIRT4; 1000 μM): 151 ± 13.4%
SIRT5 transcription increase relative to control (SIRT5; 3 μM): 3 ± 1%
SIRT5 transcription increase relative to control (SIRT5; 10 μM): 5.2 ± 3%^
SIRT5 transcription increase relative to control (SIRT5; 10 μM, listed as P4): 5 ± 3%
SIRT5 transcription increase relative to control (SIRT5; 30 μM): 21 ± 6.7%
SIRT5 transcription increase relative to control (SIRT5; 30 μM, listed as P4): 21 ± 7%
SIRT5 transcription increase relative to control (SIRT5; 50 μM): 33.1 ± 6.1%
SIRT5 transcription increase relative to control (SIRT5; 50 μM, listed as P4): 33 ± 6%
SIRT5 transcription increase relative to control (SIRT5; 100 μM, listed as Deca): 46 ± 7.3%
SIRT5 transcription increase relative to control (SIRT5; 100 μM, listed as P4): 46 ± 7%
SIRT5 transcription increase relative to control (SIRT5; 300 μM): 67 ± 9.3%
SIRT5 transcription increase relative to control (SIRT5; 300 μM, listed as P4): 67 ± 9%
SIRT5 transcription increase relative to control (SIRT5; 500 μM): 87.4 ± 15.1%
SIRT5 transcription increase relative to control (SIRT5; 1000 μM): 92.1 ± 16.8%
SIRT6 transcription increase relative to control (SIRT6; 3 μM): 3 ± 1%
SIRT6 transcription increase relative to control (SIRT6; 10 μM): 21.3 ± 8.1%
SIRT6 transcription increase relative to control (SIRT6; 10 μM, listed as P4): 21 ± 8%
SIRT6 transcription increase relative to control (SIRT6; 30 μM): 52 ± 5.1%
SIRT6 transcription increase relative to control (SIRT6; 30 μM, listed as P4): 52 ± 5%
SIRT6 transcription increase relative to control (SIRT6; 50 μM): 95.4 ± 13.4%
SIRT6 transcription increase relative to control (SIRT6; 50 μM, listed as P4): 95 ± 13%
SIRT6 transcription increase relative to control (SIRT6; 100 μM): 147±8% and 147%
SIRT6 transcription increase relative to control (SIRT6; 100 μM, listed as Deca): 147 ± 8.4%
SIRT6 transcription increase relative to control (SIRT6; 100 μM, listed as P4): 147 ± 8%
SIRT6 transcription increase relative to control (SIRT6; 300 μM): 189 ± 9.5%
SIRT6 transcription increase relative to control (SIRT6; 300 μM, listed as P4): 189 ± 10%
SIRT6 transcription increase relative to control (SIRT6; 500 μM): 194 ± 14%
SIRT6 transcription increase relative to control (SIRT6; 1000 μM): 167 ± 12.2%
SIRT7 transcription increase relative to control (SIRT7; 3 μM): 5 ± 1%
SIRT7 transcription increase relative to control (SIRT7; 10 μM): 15 ± 4.2%
SIRT7 transcription increase relative to control (SIRT7; 10 μM, listed as P4): 15 ± 4%
SIRT7 transcription increase relative to control (SIRT7; 30 μM): 34.4 ± 9.2%
SIRT7 transcription increase relative to control (SIRT7; 30 μM, listed as P4): 34 ± 9%
SIRT7 transcription increase relative to control (SIRT7; 50 μM): 61.3 ± 10.2%
SIRT7 transcription increase relative to control (SIRT7; 50 μM, listed as P4): 61 ± 10%
SIRT7 transcription increase relative to control (SIRT7; 100 μM): 95.4±14% and 95±14%
SIRT7 transcription increase relative to control (SIRT7; 100 μM, listed as Deca): 95.4 ± 14.2%
SIRT7 transcription increase relative to control (SIRT7; 100 μM, listed as P4): 95 ± 14%
SIRT7 transcription increase relative to control (SIRT7; 300 μM): 148 ± 9.6%
SIRT7 transcription increase relative to control (SIRT7; 300 μM, listed as P4): 148 ± 10%
SIRT7 transcription increase relative to control (SIRT7; 500 μM): 171.4 ± 8.4%
SIRT7 transcription increase relative to control (SIRT7; 1000 μM): 181.1 ± 8.4%
viability at 72 h, 3 µM (in vitro): 100%
viability at 72 h, 10 µM (in vitro): 99 ± 1%
viability at 72 h, 30 µM (in vitro): 98 ± 1%
viability at 72 h, 50 µM (in vitro): 97 ± 1%
viability at 72 h, 100 µM (in vitro): 97 ± 1%
viability at 72 h, 300 µM (in vitro): 96 ± 1%
viability at 72 h, 500 µM (in vitro): 96 ± 2%
viability at 72 h, 1000 µM (in vitro): 94 ± 2%
viability at 72 h, 3 µM ([1]; 3 μM): 100%
viability at 72 h, 10 µM ([1]; 10 μM): 100%
viability at 72 h, 30 µM ([1]; 30 μM): 99 ± 1%
viability at 72 h, 50 µM ([1]; 50 μM): 98 ± 1%
viability at 72 h, 100 µM ([1]; 100 μM): 97 ± 1%
viability at 72 h, 300 µM ([1]; 300 μM): 97 ± 1%
viability at 72 h, 500 µM ([1]; 500 μM): 95 ± 2%
viability at 72 h, 1000 µM ([1]; 1000 μM): 95 ± 2%
viability at 168 h, 3 µM ([2]; 3 μM): 100%
viability at 168 h, 10 µM ([2]; 10 μM): 98.6 ± 1%
viability at 168 h, 30 µM ([2]; 30 μM): 98.2 ± 1%
viability at 168 h, 50 µM ([2]; 50 μM): 97.8 ± 1%
viability at 168 h, 100 µM ([2]; 100 μM): 97.2 ± 1%
viability at 168 h, 300 µM ([2]; 300 μM): 95.6 ± 2%
viability at 168 h, 500 µM ([2]; 500 μM): 94.5 ± 2%
viability at 168 h, 1000 µM ([2]; 1000 μM): 93.8 ± 1%
